Source: patent US12577259B2, “PCSK9 antagonist compounds” (MERCK SHARP & DOHME LLC, priority 2019, dated 2026)

Assays:
Assay type in all cases: binding
PCSK9 [1] = biological target: T1, PCSK9 (Homo sapiens, UniProt Q8NBP7); test: PCSK9 Alexa FRET Ultra TR-FRET assay
T1 construct: biotin (biotinylated); purchased
Method: The following is a description of the assays used to determine activity of compounds of the invention, and any comparator compounds reported, toward PCSK9 antagonism. Biotinylated PCSK9 was obtained commercially. […] An Echo is used to transfer 0.015 ul of compound plus 0.735 ul of DMSO to each well of an assay plate followed by the addition of 15 ul of PCSK9+Stept-Eu and 15 ul of AF peptide. […] The reaction is incubated at room temperature for at least two hours prior to fluorescence measurements using an Envision Multilabel Reader. IC50 values are determined by fitting data to a sigmoidal dose-response curve using nonlinear regression. Ki is then calculated from the Ic50 and the KD of AF cyclic peptide. Counts (B-counts) of the europium-labeled PCSK9 are followed to observe if compounds are adversely affecting PCSK9. […] Data from this procedure is reported as “Ki Ultra=‘numerical value’ (data reported is nanomolar)”

PCSK9 [2] = biological target: T1, PCSK9; test: PCSK9 Alexa FRET Standard TR-FRET assay; details: biotinylated PCSK9 0.5 nM, 20 nM AF cyclic peptide Reagent A; Ki calculated from IC50 and KD of AF peptide; read-out: Alexa FRET Stdt TR-FRET
Method: (§1) The following is a description of the assays used to determine activity of compounds of the invention, and any comparator compounds reported, toward PCSK9 antagonism. Biotinylated PCSK9 was obtained commercially.
A separate solution containing 40 nM of the AlexaFluor tagged cyclic peptide is made in the same buffer system. An Echo is used to transfer 0.750 ul of compound to an assay plate followed by the addition of 15 ul of PCSK9+Stept-Eu and 15 ul of AF peptide. […] The reaction is incubated at room temperature for at least two hours prior to fluorescence measurements using an Envision Multilabel Reader. IC50 values are determined by fitting data to a sigmoidal dose-response curve using nonlinear regression. Ki is then calculated from the Ic50 and the KD of AF cyclic peptide. Counts (B-counts) of the europium-labeled PCSK9 are followed to observe if compounds are adversely PCSK9. A fall off of the B-counts likely indicates a false positive of inhibition. Data from this procedure is reported as “A=‘numerical value’ (nanomolar)”

PCSK9 [3] = biological target: T1, PCSK9; test: PCSK9 Alexa FRET Plus TR-FRET assay; details: biotinylated PCSK9 0.5 nM, 960 nM AF cyclic peptide Reagent B; Ki calculated from IC50 and KD of AF peptide
Method: as §1
An Echo is used to transfer 0.075 ul of compound plus 0.675 ul of DMSO to each well of an assay plate followed by the addition of 15 ul of PCSK9+Stept-Eu and 15 ul of AF peptide. […] The reaction is incubated at room temperature for at least two hours prior to fluorescence measurements using an Envision Multilabel Reader. IC50 values are determined by fitting data to a sigmoidal dose-response curve using nonlinear regression. Ki is then calculated from the Ic50 and the KD of AF cyclic peptide. Counts (B-counts) of the europium-labeled PCSK9 are followed to observe if compounds are adversely affecting PCSK9. […] Data from this procedure is reported as “P=‘numerical value’ (nanomolar)”

[4] = Ki Ultra, biotinylated PCSK9 0.5 nM, 960 nM AF cyclic peptide, Ki calculated from IC50 and KD of AF peptide, read-out: Alexa FRET Ultra TR-FRET

T1 sequence (Q8NBP7 153-692): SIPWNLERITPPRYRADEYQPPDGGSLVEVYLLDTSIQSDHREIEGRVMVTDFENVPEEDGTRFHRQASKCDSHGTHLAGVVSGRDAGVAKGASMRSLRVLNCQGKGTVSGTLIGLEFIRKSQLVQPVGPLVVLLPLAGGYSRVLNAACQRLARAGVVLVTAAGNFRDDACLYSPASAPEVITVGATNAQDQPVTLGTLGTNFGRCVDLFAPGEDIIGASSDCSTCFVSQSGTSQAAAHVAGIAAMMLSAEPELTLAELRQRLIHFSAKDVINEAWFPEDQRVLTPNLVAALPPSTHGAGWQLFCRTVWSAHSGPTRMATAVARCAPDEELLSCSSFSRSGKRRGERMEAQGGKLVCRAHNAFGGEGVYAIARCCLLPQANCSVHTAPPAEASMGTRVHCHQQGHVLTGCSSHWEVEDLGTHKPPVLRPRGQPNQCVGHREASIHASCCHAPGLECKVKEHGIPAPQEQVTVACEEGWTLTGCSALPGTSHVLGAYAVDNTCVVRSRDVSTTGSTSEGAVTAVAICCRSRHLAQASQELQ

Row | Ki (PCSK9 [1]; [4]) [pM] | Ki (PCSK9 [2]) [pM] | Ki (PCSK9 [3]) [pM] | Structure (SMILES) | Ki (PCSK9 [1]) [pM]
1 | 1 | < 1260 | < 6 | COc1ccc(C[C@@H]2NC(=O)[C@H]([C@@H](C)O)NC(=O)[C@@H]3[C@@H]4CCN3C(=O)[C@@H]3Cc5cn(c6ccc(F)cc56)CCCCCCN(Cc5ccc(cc5)CCNC(=O)[C@]5(C)CCCN5C2=O)C(=O)CCOCCC(=O)N[C@H](CNC(=O)CCOCCOCC[N+](C)(C)CCNC(=O)COCCOCCNC(=O)COCCOCCNC(=O)CCC(NC(=O)CCCCCCCCCCCCCCC(=O)O)C(=O)O)C(=O)N[C@@H](Cc2cccc(c2)CNC(=O)CO4)C(=O)N3)cc1 (some centres unmarked) [Example 11] | 
2 | 360 | < 1260 | 49 | COc1ccc(C[C@@H]2NC(=O)[C@H]([C@@H](C)O)NC(=O)[C@@H]3[C@@H]4CCN3C(=O)[C@@H]3Cc5cn(c6ccc(F)cc56)Cc5cn(nn5)Cc5cc(ccc5CNC(=O)CCCCCC(=O)N[C@H](CNC(=O)CCOCCOCC[N+](C)(C)CCNC(=O)COCCOCCNC(=O)COCCOCCNC(=O)CC[C@H](NC(=O)CC[C@H](NC(=O)CCCCCCCCCCCCCCCCC(=O)O)C(=O)O)C(=O)O)C(=O)N[C@@H](Cc5cccc(c5)C/C=C/CO4)C(=O)N3)CCNC(=O)[C@]3(C)CCCN3C2=O)cc1 [Example 6] | 
3 | 2 | < 1260 | < 6 | COc1ccc(C[C@@H]2NC(=O)[C@H]([C@@H](C)O)NC(=O)[C@@H]3[C@@H]4CCN3C(=O)[C@@H]3Cc5cn(c6ccc(F)cc56)CCCCCCN(Cc5ccc(cc5)CCNC(=O)[C@]5(C)CCCN5C2=O)C(=O)CCOCCC(=O)N[C@H](CNC(=O)CCOCCOCC[N+](C)(C)CCNC(=O)COCCOCCNC(=O)COCCOCCNC(=O)CC[C@H](NC(=O)CC[C@H](NC(=O)CCCCCCCCCCCCCCC(=O)O)C(=O)O)C(=O)O)C(=O)N[C@@H](Cc2cccc(c2)CNC(=O)CO4)C(=O)N3)cc1 [Example 12] | 
4 | 430 | < 1260 | 82 | COc1ccc(C[C@@H]2NC(=O)[C@H]([C@@H](C)O)NC(=O)[C@@H]3[C@@H]4CCN3C(=O)[C@@H]3Cc5cn(c6ccc(F)cc56)Cc5cn(nn5)Cc5cc(ccc5CNC(=O)CCCCCC(=O)N[C@H](CNC(=O)CCOCCOCC[N+](C)(C)CCNC(=O)COCCOCCNC(=O)COCCOCCNC(=O)CC[C@@H](NC(=O)CC[C@@H](NC(=O)CCCCCCCCCCCCCCCCC(=O)O)C(=O)O)C(=O)O)C(=O)N[C@@H](Cc5cccc(c5)C/C=C/CO4)C(=O)N3)CCNC(=O)[C@]3(C)CCCN3C2=O)cc1 [Example 3] | 
5 |  | < 1260 | < 6 | COc1ccc(C[C@@H]2NC(=O)[C@H]([C@@H](C)O)NC(=O)[C@@H]3[C@@H]4CCN3C(=O)[C@@H]3Cc5cn(c6ccc(F)cc56)CCCCCCN(Cc5ccc(cc5)CCNC(=O)[C@]5(C)CCCN5C2=O)C(=O)CCCCCC(=O)N[C@H](CNC(=O)CCOCCOCC[N+](C)(C)CCNC(=O)COCCOCCNC(=O)COCCOCCNC(=O)CC[C@H](NC(=O)CCCCCCCCCCCCCCC(=O)O)C(=O)O)C(=O)N[C@@H](Cc2cccc(c2)CNC(=O)CO4)C(=O)N3)cc1 [Example 13] | 
6 | 488 | < 1260 | 205 | COc1ccc(C[C@@H]2NC(=O)[C@H]([C@@H](C)O)NC(=O)[C@@H]3[C@@H]4CCN3C(=O)[C@@H]3Cc5cn(c6ccc(F)cc56)Cc5cn(nn5)Cc5cc(ccc5CNC(=O)CCCCCC(=O)N[C@H](CNC(=O)COCCOCCNC(=O)CC[C@H](NC(=O)CCOCCOCC[N+](C)(C)CCNC(=O)COCCOCCNC(=O)COCCOCCNC(=O)CCC(NC(=O)CCCCCCCCCCCCCCCCC(=O)O)C(=O)O)C(=O)O)C(=O)N[C@@H](Cc5cccc(c5)C/C=C/CO4)C(=O)N3)CCNC(=O)[C@]3(C)CCCN3C2=O)cc1 (some centres unmarked) [Example 1] | 
7 | 4 | < 1260 | < 6 | COc1ccc(C[C@@H]2NC(=O)[C@H]([C@@H](C)OCc3cn(CCNC(=O)CCOCCOCC[N+](C)(C)C)nn3)NC(=O)[C@@H]3[C@@H]4CCN3C(=O)[C@@H]3Cc5cn(c6ccc(F)cc56)CCCCCCN(Cc5ccc(cc5)CCNC(=O)[C@]5(C)CCCN5C2=O)C(=O)CCC(=O)N[C@@H](C)C(=O)N[C@H](CNC(=O)COCCOCCNC(=O)COCCOCCNC(=O)CC[C@H](NC(=O)CCCCCCCCCCCCCCCCC(=O)O)C(=O)O)C(=O)N[C@@H](Cc2cccc(c2)CNC(=O)CO4)C(=O)N3)cc1 [Example 7] | 
8 | 140 | < 1260 | 24 | COc1ccc(C[C@@H]2NC(=O)[C@H]([C@@H](C)O)NC(=O)[C@@H]3[C@@H]4CCN3C(=O)[C@@H]3Cc5cn(c6ccc(F)cc56)Cc5cn(nn5)Cc5cc(ccc5CNC(=O)CCCCCC(=O)N[C@H](CNC(=O)COCCOCC[N+](C)(C)CCNC(=O)COCCOCCNC(=O)COCCOCCNC(=O)CCC(NC(=O)CCCCCCCCOCCCCCCCCC(=O)O)C(=O)O)C(=O)N[C@@H](Cc5cccc(c5)C/C=C/CO4)C(=O)N3)CCNC(=O)[C@]3(C)CCCN3C2=O)cc1 (some centres unmarked) [Example 2] | 
9 | 130 | < 1260 | 36 | COc1ccc(C[C@@H]2NC(=O)[C@H]([C@@H](C)O)NC(=O)[C@@H]3[C@@H]4CCN3C(=O)[C@@H]3Cc5cn(c6ccc(F)cc56)Cc5cn(nn5)Cc5cc(ccc5CNC(=O)CCCCCC(=O)N[C@H](CNC(=O)CCOCCOCC[N+](C)(C)CCNC(=O)COCCOCCNC(=O)COCCOCCNC(=O)CC[C@H](NC(=O)CCCCCCCCCCCCCCC(=O)O)C(=O)O)C(=O)N[C@@H](Cc5cccc(c5)C/C=C/CO4)C(=O)N3)CCNC(=O)[C@]3(C)CCCN3C2=O)cc1 [Example 5] | 
10 | 160 | < 1260 | 37 | COc1ccc(C[C@@H]2NC(=O)[C@H]([C@@H](C)O)NCC(=O)[C@@H]3[C@@H]4CCN3C(=O)[C@@H]3Cc5cn(c6ccc(F)cc56)Cc5cn(nn5)Cc5cc(ccc5CNC(=O)CCCCCC(=O)N[C@H](CNC(=O)CCOCCOCC[N+](C)(C)CCOCCNC(=O)COCCOCCNC(=O)COCCOCCNC(=O)CC[C@H](NC(=O)CC[C@H](NC(=O)CCCCCCCCCCCCCCC(=O)O)C(=O)O)C(=O)O)C(=O)N[C@@H](Cc5cccc(c5)C/C=C/CO4)C(=O)N3)CCNC(=O)[C@]3(C)CCCN3C2=O)cc1 [Example 4] | 

Row | Structure (SMILES) | Ki (PCSK9 [1]; [4]) [pM] | Ki (PCSK9 [2]) [pM] | Ki (PCSK9 [3]) [pM] | Ki (PCSK9 [1]) [pM]
11 | COc1ccc(C[C@@H]2NC(=O)[C@H]([C@@H](C)OCc3cn(CCNC(=O)COCCOCCNC(=O)COCCOCCNC(=O)CC[C@H](NC(=O)CCCCCCCCCCCCCCCCC(=O)O)C(=O)O)nn3)NC(=O)[C@@H]3[C@@H]4CCN3C(=O)[C@@H]3Cc5cn(c6ccc(F)cc56)CCCCCCN(Cc5ccc(cc5)CCNC(=O)[C@]5(C)CCCN5C2=O)C(=O)CCC(=O)N[C@@H](C)C(=O)N[C@H](CNC(=O)CCOCCOCC[N+](C)(C)C)C(=O)N[C@@H](Cc2cccc(c2)CNC(=O)CO4)C(=O)N3)cc1 [Example 8] |  | < 1260 | < 6 | 6
12 | COc1ccc(C[C@@H]2NC(=O)[C@H]([C@@H](C)O)NC(=O)[C@@H]3[C@@H]4CCN3C(=O)[C@@H]3Cc5cn(c6ccc(F)cc56)CCCCCCN(Cc5ccc(cc5)CCNC(=O)[C@]5(C)CCCN5C2=O)C(=O)CCOCCC(=O)N[C@H](CNC(=O)CCOCCOCC[N+](C)(C)CCNC(=O)COCCOCCNC(=O)COCCOCCNC(=O)CC[C@H](NC(=O)CC[C@H](NC(=O)CCCCCCCCCCCCCCCCC(=O)O)C(=O)O)C(=O)O)C(=O)N[C@@H](Cc2cccc(c2)CNC(=O)CO4)C(=O)N3)cc1 [Example 10] |  | < 1260 | < 6 | 4
13 | COc1ccc(C[C@@H]2NC(=O)[C@H]([C@@H](C)Oc3cn(CCNC(=O)CCOCCOCC[N+](C)(C)CCNC(=O)COCCOCCNC(=O)COCCOCCNC(=O)CCC(NC(=O)CC[C@H](NC(=O)CCCCCCCCCCCCCCCCC(=O)O)C(=O)O)C(=O)O)nn3)NC(=O)[C@@H]3[C@@H]4CCN3C(=O)[C@@H]3Cc5cn(c6ccc(F)cc56)CCCCCCN(Cc5ccc(cc5)CCNC(=O)[C@]5(C)CCCN5C2=O)C(=O)CCC(=O)N[C@@H](C)C(=O)N[C@H](CNC(=O)CCOCCOCC[N+](C)(C)C)C(=O)N[C@@H](Cc2cccc(c2)C/C=C/CO4)C(=O)N3)cc1 (some centres unmarked) [Example 9] |  | < 1260 | < 6 | 3
